The results in this text go back to PubChem BioAssay AID720605 (Broad Institute, 2013).

Molecules are shown by their SMILES.

This assay has as its system U-251 glioblastoma viability, Alamar Blue, 8-48 h. Briefly: U-251 glioblastoma cell viability loss, dose response, HRAS target identification, Alamar Blue fluorescence, 8/24/48 h, dry powder (AID 720605). Background: Alamar Blue is a resazurin reagent that responds to reducing activity.

Usually AC50 stands for the midpoint of the concentration-response curve, whichever way the signal moves. Low values mean activity at low concentration, high ones activity only at high concentration.

As to `Cc1onc(C(=O)N2CCN(C(c3ccc(Cl)cc3)c3ccc(Cl)cc3)CC2)c1[N+](=O)[O-]`, the half-maximal activity concentration (AC50) came out at 383 nM (measured here: 8 h treatment), 359 nM (measured here: 24 h treatment) and 293 nM (measured here: 48 h treatment).

Regarding `CC(C)(C)OC(=O)NCCOCCOCCOc1ccc(N(C(=O)CCl)C(C(=O)NCCc2ccccc2)c2cccs2)cc1Cl` (stereo not given), the AC50 by setting is: (measured here: 8 h treatment) 297 nM; (measured here: 24 h treatment) 229 nM; (measured here: 48 h treatment) 330 nM.

Turning to `COc1ccc(N(C(=O)CCl)C(C(=O)NCCc2ccccc2)c2cccs2)cc1Cl` (stereo not given), the AC50 was found to be 66.3 nM (measured here: 8 h treatment), 54.3 nM (measured here: 24 h treatment) and 51 nM (measured here: 48 h treatment).

In the case of `COC(=O)c1ccc([C@@H]2c3[nH]c4ccccc4c3C[C@@H](C(=O)OC)N2C(=O)CCl)cc1`, the half-maximal activity concentration (AC50) (measured here: 8 h treatment) turned out to be 14.4 nM, the AC50 (measured here: 24 h treatment) stood at 42.7 nM and the AC50 (measured here: 48 h treatment) turned out to be 45.4 nM.

On to `C#CCCCC(=O)NCCOCCOCCOc1ccc(N(C(=O)CCl)C(C(=O)NCCc2ccccc2)c2cccs2)cc1Cl` (stereo not given), for which the half-maximal activity concentration (AC50) is, setting by setting: (measured here: 8 h treatment) 1990 nM; (measured here: 24 h treatment) 920 nM; (measured here: 48 h treatment) 855 nM.
